Legend:
[1] = test system: Phospho-Zap70 (Y-319) in Jurkat wild-type (clone E6-1) cells; test: Jurkat pZAP70 HTRF Assay; format: cell-based; settings: Homo sapiens, anti-CD3 5 μg/ml, 3 hr, read-out: ZAP70 Jurkat EC50
[2] = test system: Jurkat (clone E6-1) cells, NFAT luciferase reporter; test: Jurkat Reporter Assay (NFAT Luciferase); format: cell-based; settings: Homo sapiens, anti-CD3 stimulation, 6 hr, read-out: Jurkat NFAT EC50
[3] = target: Recombinant human Cbl-b (aa 36-427) (Homo sapiens (Human), UniProt Q13191); test: Cbl-b Biochemical Assay (TR-FRET); settings: read-out: TR-FRET hCbl-b IC50
Procedure, shortened: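 IC50 from 4-parameter fit of % inhibition (DMSO max, reference-inhibitor min), duplicate ten-point series. Compound preincubated with 6 nM Cbl-b, then Src-Zap70 (1-2.5 nM)/0.5 mM ATP reaction 60 min RT; EDTA quench with labelled UBE2D2-Ub and streptavidin-terbium, 60 min, HTRF at 520 nm.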

Sequence of Recombinant human Cbl-b (aa 36-427) (Q13191 36-427): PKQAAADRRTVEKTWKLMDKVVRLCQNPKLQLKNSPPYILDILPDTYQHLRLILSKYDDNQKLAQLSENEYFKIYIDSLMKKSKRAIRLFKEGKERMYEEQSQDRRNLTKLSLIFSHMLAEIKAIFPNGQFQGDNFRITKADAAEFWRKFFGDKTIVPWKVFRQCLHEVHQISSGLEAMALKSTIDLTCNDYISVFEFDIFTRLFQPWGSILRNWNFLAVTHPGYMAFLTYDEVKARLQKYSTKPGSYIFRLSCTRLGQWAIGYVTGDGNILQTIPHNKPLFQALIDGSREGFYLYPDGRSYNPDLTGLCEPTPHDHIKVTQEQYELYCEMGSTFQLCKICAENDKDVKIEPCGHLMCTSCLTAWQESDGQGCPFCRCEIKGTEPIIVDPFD

Structure (SMILES)	EC50 [1]	EC50 [2]	IC50 [3]
CCNc1cc(-c2ccc(C#N)cc2-c2nncn2C)cc(N2Cc3c(cc(C(O)CN(C)C)cc3C(F)(F)F)C2=O)n1 (stereo not drawn) [AFR-7, 4-(2-{6-[2-(Dimethylamino)-1-hydroxyethyl]-1-oxo-4-(trifluoromethyl)-3H-isoindol-2-yl}-6-(ethylamino)pyridin-4-yl)-3-(4-methyl-1,2,4-triazol-3-yl) benzonitrile]	< 200 nM	< 200 nM	≤ 200 nM
C[C@H]1CCCN(Cc2cc3c(c(C(F)(F)F)c2)CN(c2cccc(-c4ccc(C#N)cc4-c4nncn4C)c2)C3=O)C1 [ADQ-2, 2-(4-methyl-1,2,4-triazol-3-yl)-3′-(6-{[(3S)-3-methylpiperidin-1-yl]methyl}-1-oxo-4-(trifluoromethyl)-3H-isoindol-2-yl)-[1,1′-biphenyl]-4-carbonitrile]	< 200 nM	< 200 nM	≤ 200 nM
Cn1cnnc1-c1cc(C#N)ccc1-c1cc(C2CC2)nc(N2Cc3c(cc(CO)cc3C(F)(F)F)C2=O)c1 [AES-1, 4-(2-Cyclopropyl-6-(6-(hydroxymethyl)-1-oxo-4-(trifluoromethyl)isoindolin-2-yl)pyridin-4-yl)-3-(4-methyl-4H-1,2,4-triazol-3-yl)benzonitrile]	200 to 1000 nM	< 200 nM	≤ 200 nM
CNCc1cc2c(c(C(F)(F)F)c1)CN(c1cc(-c3ccc(C#N)cc3-c3nncn3C)cc(C3CC3)n1)C2=O [AGZ-1, 4-(2-Cyclopropyl-6-{6-[(methylamino)methyl]-1-oxo-4-(trifluoromethyl)-3H-isoindol-2-yl}pyridin-4-yl)-3-(4-methyl-1,2,4-triazol-3-yl)benzonitrile]	< 200 nM	< 200 nM	≤ 200 nM
CCNc1cc(-c2ccc(C#N)cc2-c2nncn2C)cc(N2Cc3c(cc(NC)cc3C(F)(F)F)C2=O)n1 [AFA-2, 4-[2-(ethylamino)-6-[6-(methylamino)-1-oxo-4-(trifluoromethyl)-3H-isoindol-2-yl]pyridin-4-yl]-3-(4-methyl-1,2,4-triazol-3-yl)benzonitrile]	200 to 1000 nM	< 200 nM	≤ 200 nM
CCNc1cc(-c2ccc(C#N)cc2-c2nncn2C)cc(N2Cc3c(cc(CNCCOC)cc3C(F)(F)F)C2=O)n1 [AEC-2, 4-[2-(Ethylamino)-6-(6-{[(2-methoxyethyl)amino]methyl}-1-oxo-4-(trifluoromethyl)-3H-isoindol-2-yl)pyridin-4-yl]-3-(4-methyl-1,2,4-triazol-3-yl)benzonitrile]	< 200 nM	< 200 nM	≤ 200 nM
CCOc1cc(-c2ccc(F)cc2-c2nncn2C)cc(N2Cc3c(cc(CNCC4(O)CCC4)cc3C(F)(F)F)C2=O)n1 [AGQ-2, 2-{6-Ethoxy-4-[4-fluoro-2-(4-methyl-1,2,4-triazol-3-yl)phenyl]pyridin-2-yl}-6-({[(1-hydroxycyclobutyl)methyl]amino}methyl)-4-(trifluoromethyl)-3H-isoindol-1-one]	200 to 1000 nM	< 200 nM	≤ 200 nM
Cn1cnnc1-c1ccccc1-c1cccc(N2Cc3c(cc(CNCC4(O)CCC4)cc3C(F)(F)F)C2=O)c1 [AW-2, 6-((((1-Hydroxycyclobutyl)methyl)amino)methyl)-2-(2′-(4-methyl-4H-1,2,4-triazol-3-yl)-[1,1′-biphenyl]-3-yl)-4-(trifluoromethyl)isoindolin-1-one]	< 200 nM	< 200 nM	≤ 200 nM
Cn1cnnc1-c1cc(C#N)ccc1-c1cccc(N2Cc3c(cc(CNCC4(O)CCC4)cc3C(F)(F)F)C2=O)c1 [ADV-1, 3′-[6-({[(1-Hydroxycyclobutyl)methyl]amino}methyl)-1-oxo-4-(trifluoromethyl)-3H-isoindol-2-yl]-2-(4-methyl-1,2,4-triazol-3-yl)-[1,1′-biphenyl]-4-carbonitrile]	< 200 nM	< 200 nM	≤ 200 nM
CCNc1cc(-c2c(-c3nncn3C)cnn2C)cc(N2Cc3c(cc(COCC4(O)CCC4)cc3C(F)(F)F)C2=O)n1 [AED-2, 2-[6-(Ethylamino)-4-[2-methyl-4-(4-methyl-1,2,4-triazol-3-yl)pyrazol-3-yl]pyridin-2-yl]-6-{[(1-hydroxycyclobutyl)methoxy]methyl}-4-(trifluoromethyl)-3H-isoindol-1-one]	200 to 1000 nM	< 200 nM	≤ 200 nM
Cn1cnnc1-c1cc(C#N)ccc1-c1cc(C2CC2)nc(N2Cc3c(cc(C4(O)CCC4)cc3C(F)(F)F)C2=O)c1 [AGM-5, 4-{2-Cyclopropyl-6-[6-(1-hydroxycyclobutyl)-1-oxo-4-(trifluoromethyl)-3H-isoindol-2-yl]pyridin-4-yl}-3-(4-methyl-1,2,4-triazol-3-yl)benzonitrile]	200 to 1000 nM	< 200 nM	≤ 200 nM
Cn1cnnc1-c1cc(Cl)ccc1-c1cccc(N2Cc3ccc(CNCC4(O)CCC4)cc3C2=O)c1 [AGV-1, 2-[4′-Chloro-2′-(4-methyl-1,2,4-triazol-3-yl)-[1,1′-biphenyl]-3-yl]-6-({[(1-hydroxycyclobutyl)methyl]amino}methyl)-3H-isoindol-1-one]	< 200 nM	< 200 nM	≤ 200 nM
Cn1cnnc1-c1cc(F)ccc1-c1cc(C2CC2)nc(N2Cc3c(cc(COCC4(N)CCC4)cc3C(F)(F)F)C2=O)c1 [AGG-2, 6-{1[(1-Aminocyclobutyl)methoxy]methyl}-2-{6-cyclopropyl-4-[4-fluoro-2-(4-methyl-1,2,4-triazol-3-yl)phenyl]pyridin-2-yl}-4-(trifluoromethyl)-3H-isoindol-1-one]	< 200 nM	< 200 nM	≤ 200 nM
CCNc1cc(-c2c(-c3nncn3C)cnn2C)cc(N2Cc3c(cc(CO[C@@H]4CCC[C@@H]4O)cc3C(F)(F)F)C2=O)n1 [ADH-1, 2-[6-(Ethylamino)-4-[2-methyl-4-(4-methyl-1,2,4-triazol-3-yl)pyrazol-3-yl]pyridin-2-yl]-6-({[(1R,2S)-2-hydroxycyclopentyl]oxy}methyl)-4-(trifluoromethyl)-3H-isoindol-1-one]	200 to 1000 nM	< 200 nM	≤ 200 nM
C=C(C)c1cc(-c2ccc(F)cc2-c2nncn2C)cc(N2Cc3ccc(CNCC4(O)CCC4)cc3C2=O)n1 [AFW-3, 2-{4-[4-Fluoro-2-(4-methyl-1,2,4-triazol-3-yl)phenyl]-6-(prop-1-en-2-yl)pyridin-2-yl}-6-({[(1-hydroxycyclobutyl)methyl]amino}methyl)-3H-isoindol-1-one]	< 200 nM	< 200 nM	≤ 200 nM
CCNc1cc(-c2ccc(F)cc2-c2nncn2C)cc(N2Cc3c(cc(COCCO)cc3C(F)(F)F)C2=O)n1 [AGE-3, 2-[6-(Ethylamino)-4-[4-fluoro-2-(4-methyl-1,2,4-triazol-3-yl)phenyl]pyridin-2-yl]-6-[(2-hydroxyethoxy)methyl]-4-(trifluoromethyl)-3H-isoindol-1-one]	< 200 nM	< 200 nM	≤ 200 nM
Cn1cnnc1-c1cc(F)ccc1-c1cc(C2CC2)nc(N2Cc3ccc(CN[C@@H]4CCC[C@@H]4O)cc3C2=O)c1 [AFO-2, 2-{6-Cyclopropyl-4-[4-fluoro-2-(4-methyl-1,2,4-triazol-3-yl)phenyl]pyridin-2-yl}-6-({[(1R,2S)-2-hydroxycyclopentyl]amino}methyl)-3H-isoindol-1-one]	< 200 nM	< 200 nM	≤ 200 nM
CCNc1cc(-c2ccc(C#N)cc2-c2nncn2C)cc(N2Cc3c(cc(CN4CCC[C@H](C)C4)cc3C(F)(F)F)C2=O)n1 [ADT-2, 4-[2-(Ethylamino)-6-(6-{[(3S)-3-methylpiperidin-1-yl]methyl}-1-oxo-4-(trifluoromethyl)-3H-isoindol-2-yl)pyridin-4-yl]-3-(4-methyl-1,2,4-triazol-3-yl)benzonitrile]	< 200 nM	< 200 nM	≤ 200 nM
COc1cc2c(cc1CNCC1(O)CCC1)C(=O)N(c1cc(-c3ccccc3-c3nncn3C)cc(C3CC3)n1)C2 [AEM-9, 2-(6-Cyclopropyl-4-(2-(4-methyl-4H-1,2,4-triazol-3-yl)phenyl)pyridin-2-yl)-6-((((1-hydroxycyclobutyl)methyl)amino)methyl)-5-methoxyisoindolin-1-one]	< 200 nM	< 200 nM	≤ 200 nM
CCNc1cc(-c2ccc(C#N)cc2-c2nncn2C)cc(N2Cc3c(cccc3C(F)(F)F)C2=O)n1 [ADP-8, 4-[2-(Ethylamino)-6-[1-oxo-4-(trifluoromethyl)-3H-isoindol-2-yl]pyridin-4-yl]-3-(4-methyl-1,2,4-triazol-3-yl)benzonitrile]	1000 to 10000 nM	< 200 nM	≤ 200 nM
Cn1cnnc1-c1cc(C#N)ccc1-c1cc(C2CC2)nc(N2Cc3c(cc(CNCCO)cc3C(F)(F)F)C2=O)c1 [AEO-2, 4-[2-Cyclopropyl-6-(6-{[(2-hydroxyethyl)amino]methyl}-1-oxo-4-(trifluoromethyl)-3H-isoindol-2-yl)pyridin-4-yl]-3-(4-methyl-1,2,4-triazol-3-yl) benzonitrile]	< 200 nM	< 200 nM	≤ 200 nM
Cn1cnnc1-c1cc(F)ccc1-c1cccc(N2Cc3ccc(CNCC4(O)CCC4)cc3C2=O)c1 [AHA-2, 2-(4′-Fluoro-2′-(4-methyl-4H-1,2,4-triazol-3-yl)-[1,1′-biphenyl]-3-yl)-6-((((1-hydroxycyclobutyl)methyl)amino)methyl) isoindolin-1-one]	200 to 1000 nM	< 200 nM	≤ 200 nM

Source: patent US12325697B2 (Nimbus Clio, Inc., priority 2021, dated 2025)
